We go through 42 molecules from patent publication US20110117055A1, “Methods of Treating Hepatitis C Virus with Oxoacetamide Compounds” (priority 2009, published 2011).

Each structure is given as a SMILES string.

The test system of this test is HCV2aChLuc virus. Description: In vitro HCVcc entry assay: HCV2aChLuc virus infection of Huh7 cells, Renilla luciferase read-out. Format: cell-based, HCV genotype 2a. The settings on record: Hepatitis C virus, Huh-7, read-out: Activity class (IC50), tested according to the method of Example 3.
Consider `COc1ccc(C(C)(C)C)cc1NC(=O)C(=O)c1ccc(Br)c2ccccc12` [Compound 134], for which the IC50 was in the range of 5 to 500 nM. As to `COc1c(NC(=O)C(=O)c2ccc(OCCN3CCOCC3)c3ccccc23)cc(C)cc1NS(C)(=O)=O` [Compound 13, N-(2-methoxy-5-methyl-3-(methylsulfonamido)phenyl)-2-(4-(2-morpholinoethoxy)naphthalen-1-yl)-2-oxoacetamide], the IC50 lay within 5 to 500 nM. For `Cc1cc(C(C)(C)C)cc(NC(=O)C(=O)c2ccc(OCCN3CCOCC3)c3ccccc23)c1O` [Compound 30], the IC50 is above 500 nM. Turning to `COc1ccc(-n2nc(C(C)(C)C)cc2NC(=O)C(=O)c2ccc(OCCN3CCOCC3)c3ccccc23)cc1` [Compound 35], the IC50 is above 500 nM.

Consider `O=C(N[C@@H]1C[C@H]2CC[C@@H]1C2)C(=O)c1ccc(OCCN2CCOCC2)c2ccccc12` [Compound 68], for which the IC50 was above 500 nM. For `Cc1cc(-n2nc(C(C)(C)C)cc2NC(=O)C(=O)c2ccc(OCCN3CCOCC3)c3ccccc23)ccc1F` [Compound 45] the value was above 500 nM; for `COc1c(NC(=O)C(=O)c2ccc(OCCN3CCOCC3)c3ccccc23)cc(C(C)(C)C)cc1C(=O)N1CCN(CCO)CC1` [Compound 101], above 500 nM; for `COc1c(NC(=O)C(=O)c2ccc(OCCN3CCOCC3)c3ccccc23)cc(C(C)(C)C)cc1C(=O)N1CCNCC1` [Compound 97], above 500 nM. For `CNc1ccc(-c2ccc(C(=O)C(=O)Nc3cc(C(C)(C)C)cc(C(=O)NC4CC4)c3OC)c3ccccc23)cn1` [Compound 130] the value was above 500 nM; for `Cc1ccc(Cl)cc1NC(=O)C(=O)c1ccc(OCCN2CCOCC2)c2ccccc12` [Compound 112], above 500 nM. For `COc1ccc(C(C)(C)C)cc1NC(=O)C(=O)c1ccc(-c2ccc(N(C)C)nc2)c2ccccc12` [Compound 126] the value was above 500 nM. Consider `COc1c(NC(=O)C(=O)c2ccc(OCCN3CC(C)(C)OC(C)(C)C3)c3ccccc23)cc(C(C)(C)C)cc1NS(C)(=O)=O` [Compound 96], for which the IC50 was in the range of 5 to 500 nM. For `CC(C)(C)c1cc(C#N)cc(NC(=O)C(=O)c2ccc(Br)c3ccccc23)c1` [Compound 88] the value was above 500 nM; for `COc1c(NC(=O)C(=O)c2ccc(OCCN(CCOCc3ccccc3)CCOCc3ccccc3)c3ccccc23)cc(C(C)(C)C)cc1NS(C)(=O)=O` [Compound 93], above 500 nM; for `COc1ccc(C(F)(F)F)cc1NC(=O)C(=O)c1ccc(OCCN2CCOCC2)c2ccccc12` [Compound 28], above 500 nM.

As to `COc1c(NC(=O)C(=O)c2ccc(OCCN3CCOCC3)c3ccccc23)cc(C(C)(C)C)cc1C(=O)N1CCOCC1` [Compound 24], the IC50 lay within 5 to 500 nM. `CCC(C)(C)c1cc(NC(=O)C(=O)c2ccc(OCCN3CCOCC3)c3ccccc23)c(OC)c(C(C)(C)CC)c1` [Compound 23]: the IC50 lay within 5 to 500 nM. Next, `CC(C)(C)c1ccc(O)c(NC(=O)C(=O)c2ccc(OCCN3CCOCC3)c3ccccc23)c1` [Compound 122]: 5 to 500 nM; `COc1c(NC(=O)C(=O)c2ccc(OCCN3CCOCC3)c3ccccc23)cc(C(C)(C)C)cc1-c1nnn[nH]1` [Compound 91]: above 500 nM; `COC(=O)c1sc(C(C)(C)C)cc1NC(=O)C(=O)c1ccc(OCCN2CCOCC2)c2ccccc12` [Compound 11, methyl 5-tert-butyl-3-(2-(4-(2-morpholinoethoxy)naphthalen-1-yl)-2-oxoacetamido)thiophene-2-carboxylate]: below 5 nM. For `CCN(CC)CCOc1ccc(C(=O)C(=O)Nc2cc(C(C)(C)C)cc(NS(C)(=O)=O)c2OC)c2ccccc12` [Compound 79] the value was above 500 nM. Regarding `COc1c(NC(=O)C(=O)c2ccc(OCC[N+]3([O-])CCOCC3)c3ccccc23)cc(C(C)(C)C)cc1NS(C)(=O)=O` [Compound 92], the IC50 was 5 to 500 nM. For `CC(C)(C)CC(C)(C)NC(=O)C(=O)c1ccc(OCCN2CCOCC2)c2ccccc12` [Compound 67] the value was above 500 nM; for `O=C(NC1Cc2ccccc2C1)C(=O)c1ccc(OCCN2CCOCC2)c2ccccc12` [Compound 114], above 500 nM; for `COc1c(NC(=O)CCCCC2SCC3NC(=O)NC32)cc(C(C)(C)C)cc1NC(=O)C(=O)c1ccc(OCCN2CCOCC2)c2ccccc12` (stereo not drawn) [Compound 120], 5 to 500 nM.

On to `Cc1ccc(-n2nc(C(C)(C)C)cc2NC(=O)C(=O)c2ccc(OCCN3CCS(=O)(=O)CC3)c3ccccc23)cc1` [Compound 36], for which the IC50 was above 500 nM. As for `CC(C)(C)c1nnc(NC(=O)C(=O)c2ccc(OCCN3CCOCC3)c3ccccc23)s1` [Compound 61], the IC50 was above 500 nM. As for `COc1c(NC(=O)C(=O)c2ccc(OCCN3CCOCC3)c3ccccc23)cc(C(C)(C)C)cc1C(=O)N1CCN(C)CC1` [Compound 98], the IC50 is above 500 nM. As to `COc1c(NC(=O)C(=O)c2ccc(OCCCS(=O)(=O)N(C)C)c3ccccc23)cc(C(C)(C)C)cc1NS(C)(=O)=O` [Compound 123], the IC50 was 5 to 500 nM. For `Cc1cccc(-n2nc(C(C)(C)C)cc2NC(=O)C(=O)c2ccc(OCCN3CCOCC3)c3ccccc23)c1C` [Compound 49] the value was above 500 nM. `CC(C)(C)c1cc(NC(=O)C(=O)c2ccc(OCCN3CCOCC3)c3ccccc23)c(O)c(C(N)=O)c1` [Compound 33]: the IC50 was above 500 nM. For `COc1c(NC(=O)C(=O)c2ccc(OCCN3CCN(C(=O)OC(C)(C)C)CC3)c3ccccc23)cc(C(C)(C)C)cc1NS(C)(=O)=O` [Compound 56], the IC50 was in the range of 5 to 500 nM.

Regarding `COc1c(NC(=O)C(=O)c2ccc(OCCN3CCOCC3)c3ccccc23)cc(C(C)(C)C)cc1C(=O)N1CCCN(C)CC1` [Compound 102], the IC50 was above 500 nM. For `COc1ccc(C(C)(C)C)cc1NC(=O)C(=O)c1ccc(-c2cccnc2)c2ccccc12` [Compound 127] the value was above 500 nM; for `CCNC(=O)c1cc(C(C)(C)C)cc(NC(=O)C(=O)c2ccc(OC)c3ccccc23)c1OC` [Compound 8, 5-tert-butyl-N-ethyl-2-methoxy-3-(2-(4-methoxynaphthalen-1-yl)-2-oxoacetamido)benzamide], below 5 nM. Next, `O=C(Nc1ccc2c(c1)OCCO2)C(=O)c1ccc(OCCN2CCOCC2)c2ccccc12` [Compound 90]: above 500 nM.

In the case of `O=C(Nc1nc(Cl)ccc1[N+](=O)[O-])C(=O)c1ccc(OCCN2CCOCC2)c2ccccc12` [Compound 118], the IC50 was above 500 nM. For `CC(C)(C)c1cc(NC(=O)C(=O)c2ccc(OCCN3CCOCC3)c3ccccc23)on1` [Compound 70] the value was above 500 nM; for `CC(C)(C)c1cc(NC(=O)C(=O)c2ccc(OCCN3CCOCC3)c3ccccc23)cc(NS(C)(=O)=O)c1` [Compound 109], 5 to 500 nM.

As to `COc1c(NC(=O)C(=O)c2ccc(OCCN3CCOCC3)c3ccccc23)cc(C(C)(C)C)cc1C(=O)Nc1ccccn1` [Compound 10, 5-tert-butyl-2-methoxy-3-(2-(4-(2-morpholinoethoxy)naphthalen-1-yl)-2-oxoacetamido)-N-(pyridin-2-yl)benzamide], the IC50 was below 5 nM. Regarding `CC(=O)n1nc(C(C)(C)C)cc1NC(=O)C(=O)c1ccc(OCCN2CCOCC2)c2ccccc12` [Compound 46], the IC50 is above 500 nM. Next, `COc1c(NC(=O)C(=O)c2ccc(OCCN(C)C)c3ccccc23)cc(C(C)(C)C)cc1NS(C)(=O)=O` [Compound 80]: above 500 nM.
